Measured values from the CheMixHub viscosity set.
± gives the uncertainty stated by the source.

Assay: xn = mol fraction of the nth substance listed

C[N+](C)(C)CCO.O=C([O-])C(F)(F)F + O
viscosity (298 K, 101.33 kPa, x2 = 0.8): 7.7 mPa·s

Oc1ccccc1 + C1COCCO1
viscosity (308.15 K, 101 kPa, x2 = 0.1): 4.829 ± 0.059 mPa·s
viscosity (308.15 K, 101 kPa, x2 = 0.2): 4.471 ± 0.055 mPa·s
viscosity (308.15 K, 101 kPa, x2 = 0.3): 3.888 ± 0.048 mPa·s
viscosity (308.15 K, 101 kPa, x2 = 0.4): 3.179 ± 0.039 mPa·s
viscosity (308.15 K, 101 kPa, x2 = 0.5): 2.568 ± 0.032 mPa·s
viscosity (308.15 K, 101 kPa, x2 = 0.6): 2.062 ± 0.026 mPa·s
viscosity (308.15 K, 101 kPa, x2 = 0.7): 1.664 ± 0.021 mPa·s
viscosity (308.15 K, 101 kPa, x2 = 0.8): 1.371 ± 0.017 mPa·s
viscosity (308.15 K, 101 kPa, x2 = 0.9): 1.141 ± 0.015 mPa·s

ClC(Cl)C(Cl)Cl + CCCCCCC
viscosity (303.15 K, 101 kPa, x1 = 0.1397): 0.398 ± 0.004 mPa·s
viscosity (303.15 K, 101 kPa, x1 = 0.2476): 0.472 ± 0.005 mPa·s
viscosity (303.15 K, 101 kPa, x1 = 0.3744): 0.564 ± 0.006 mPa·s
viscosity (303.15 K, 101 kPa, x1 = 0.4722): 0.643 ± 0.006 mPa·s
viscosity (303.15 K, 101 kPa, x1 = 0.5731): 0.727 ± 0.007 mPa·s
viscosity (303.15 K, 101 kPa, x1 = 0.6565): 0.8 ± 0.008 mPa·s
viscosity (303.15 K, 101 kPa, x1 = 0.7428): 0.896 ± 0.009 mPa·s
viscosity (303.15 K, 101 kPa, x1 = 0.8309): 1.023 ± 0.01 mPa·s
viscosity (303.15 K, 101 kPa, x1 = 0.9008): 1.165 ± 0.011 mPa·s
viscosity (303.15 K, 101 kPa, x1 = 0.9406): 1.267 ± 0.012 mPa·s

OC(C(F)(F)F)C(F)(F)F + CC(C)=O
viscosity (298.15 K, 101 kPa, x2 = 0.2): 1.35 ± 0.011 mPa·s
viscosity (298.15 K, 101 kPa, x2 = 0.4): 0.964 ± 0.008 mPa·s
viscosity (298.15 K, 101 kPa, x2 = 0.5): 0.838 ± 0.007 mPa·s
viscosity (298.15 K, 101 kPa, x2 = 0.6): 0.658 ± 0.006 mPa·s
viscosity (298.15 K, 101 kPa, x2 = 0.8): 0.45 ± 0.004 mPa·s
viscosity (298.15 K, 101 kPa, x2 = 0.9): 0.369 ± 0.004 mPa·s
viscosity (298.15 K, 101 kPa, x2 = 0.95): 0.336 ± 0.003 mPa·s

COCCOCCOC + CO
viscosity (293.15 K, 100 kPa, x2 = 0.056): 1.064 ± 0.043 mPa·s
viscosity (293.15 K, 100 kPa, x2 = 0.1076): 1.05 ± 0.043 mPa·s
viscosity (293.15 K, 100 kPa, x2 = 0.202): 1.015 ± 0.041 mPa·s
viscosity (293.15 K, 100 kPa, x2 = 0.2929): 0.99 ± 0.04 mPa·s
viscosity (293.15 K, 100 kPa, x2 = 0.3965): 0.951 ± 0.039 mPa·s
viscosity (293.15 K, 100 kPa, x2 = 0.4979): 0.909 ± 0.037 mPa·s
viscosity (293.15 K, 100 kPa, x2 = 0.5993): 0.863 ± 0.035 mPa·s
viscosity (293.15 K, 100 kPa, x2 = 0.6891): 0.814 ± 0.033 mPa·s
viscosity (293.15 K, 100 kPa, x2 = 0.7967): 0.747 ± 0.03 mPa·s
viscosity (293.15 K, 100 kPa, x2 = 0.8412): 0.718 ± 0.029 mPa·s
viscosity (293.15 K, 100 kPa, x2 = 0.8996): 0.674 ± 0.027 mPa·s
viscosity (293.15 K, 100 kPa, x2 = 0.948): 0.637 ± 0.026 mPa·s
viscosity (298.15 K, 100 kPa, x2 = 0.056): 0.984 ± 0.04 mPa·s
viscosity (298.15 K, 100 kPa, x2 = 0.1076): 0.97 ± 0.039 mPa·s
viscosity (298.15 K, 100 kPa, x2 = 0.202): 0.94 ± 0.038 mPa·s
viscosity (298.15 K, 100 kPa, x2 = 0.2929): 0.916 ± 0.037 mPa·s
viscosity (298.15 K, 100 kPa, x2 = 0.3965): 0.882 ± 0.036 mPa·s
viscosity (298.15 K, 100 kPa, x2 = 0.4979): 0.843 ± 0.034 mPa·s
viscosity (298.15 K, 100 kPa, x2 = 0.5993): 0.8 ± 0.032 mPa·s
viscosity (298.15 K, 100 kPa, x2 = 0.6891): 0.756 ± 0.031 mPa·s
viscosity (298.15 K, 100 kPa, x2 = 0.7967): 0.697 ± 0.028 mPa·s
viscosity (298.15 K, 100 kPa, x2 = 0.8412): 0.669 ± 0.027 mPa·s
viscosity (298.15 K, 100 kPa, x2 = 0.8996): 0.629 ± 0.025 mPa·s
viscosity (298.15 K, 100 kPa, x2 = 0.948): 0.595 ± 0.024 mPa·s
viscosity (303.15 K, 100 kPa, x2 = 0.056): 0.903 ± 0.037 mPa·s
viscosity (303.15 K, 100 kPa, x2 = 0.1076): 0.89 ± 0.036 mPa·s
viscosity (303.15 K, 100 kPa, x2 = 0.202): 0.863 ± 0.035 mPa·s
viscosity (303.15 K, 100 kPa, x2 = 0.2929): 0.84 ± 0.034 mPa·s
viscosity (303.15 K, 100 kPa, x2 = 0.3965): 0.808 ± 0.033 mPa·s
viscosity (303.15 K, 100 kPa, x2 = 0.4979): 0.775 ± 0.031 mPa·s
viscosity (303.15 K, 100 kPa, x2 = 0.5993): 0.735 ± 0.03 mPa·s
viscosity (303.15 K, 100 kPa, x2 = 0.6891): 0.693 ± 0.028 mPa·s
viscosity (303.15 K, 100 kPa, x2 = 0.7967): 0.641 ± 0.026 mPa·s
viscosity (303.15 K, 100 kPa, x2 = 0.8412): 0.615 ± 0.025 mPa·s
viscosity (303.15 K, 100 kPa, x2 = 0.8996): 0.578 ± 0.023 mPa·s
viscosity (303.15 K, 100 kPa, x2 = 0.948): 0.546 ± 0.022 mPa·s
